According to patent US6015577A, “Pharmaceutical compositions containing dipyridamole or mopidamol and acetylsalicylic acid or the physiologically acceptable salts thereof, processes for preparing them and their use in treating clot formation” (Thomae GmbH; Dr. Karl, priority 1986, dated 2000):

System: clot formation in vessels of the mesenterium
Assay: electrically induced clot formation in mesenteric vein, clot size monitored by intravital microscope
Format: in vivo, rat
Conditions: 2.5 mg/kg acetylsalicylic acid or 5 mg/kg dipyridamole p.o. alone; FIGS. 5 and 6
Method: The antithrombotic activity achieved with a simultaneous oral administration, according to the invention, of 5 mg/kg of dipyridamole and 0.05 mg/kg of acetylsalicylic acid (weight ratio of dipyridamole to acetylsalicylic acid=100) and, by comparison, during sequential oral administration (according to European Application No. 85 108 761.9) of 5 mg/kg of dipyridamole and 5 mg/kg of acetylsalicylic acid to rats (FW 49) with a body weight of from 60 to 80 g before the start of the experiment was investigated by applying a clotting stimulus to vessels of the mesenterium and by monitoring the size of the clots over a period of time. Groups of 5 animals were used. […] An interval of 1 hour was left between the simultaneous oral administration of the substances according to the invention and the application of the clot or the actual carrying out of the measurements. […]
Using an intravital microscope to monitor the process, a platinum electrode was placed on an outer blood vessel wall of the mesenterium. […] The size of the clot is measured at 10 second intervals and later at 30 second intervals over a period of up to 20 minutes after the stimulation of the blood vessel and is given as the size of the clot (at right angles to the blood vessel wall) as a percentage of the internal diameter of the blood vessel.

In the case of `CC(=O)Oc1ccccc1C(=O)O` [Acetylsalicylic acid, acetylsalicylic acid], the “reduction in the clot size, single substance” value is reported as “do not bring about any significant reduction in the clot size”.
In the case of `OCCN(CCO)c1nc(N2CCCCC2)c2nc(N(CCO)CCO)nc(N3CCCCC3)c2n1` [Dipyridamole, 2,6-bis-(diethanolamino)-4,8-dipiperidino-(5,4-d)-pyrimidine], the “reduction in the clot size, single substance” value is reported as “do not bring about any significant reduction in the clot size”.
